Experiment: Human HepG2 cell viability assay in 384 well format
Type: toxicity, cell-based
Set-up: dose 125 nL, time 70.5 hour; concentration not given beside the values
Conditions: HepG2 cells, read-out: Inhibition

Q: Which cytotoxicity at 70.5 h does the source give for Cc1nc(N)cc(C2CN(C(=O)c3ccn(C)n3)CCO2)n1 (stereo not drawn) here?
A: The cytotoxicity at 70.5 h was -11.7%.

Q: Which cytotoxicity at 70.5 h does the source give for CNc1cccc(CC2COCCN(C(=O)c3cncs3)C2)n1 (stereo not drawn) here?
A: The cytotoxicity at 70.5 h was 1.43%.

Q: With COC(=O)COn1c(SC(C)C)nc2ccccc2c1=O as the molecule, how does the cytotoxicity at 70.5 h read?
A: Its cytotoxicity at 70.5 h is -3.63%.

Q: Which cytotoxicity at 70.5 h does the source give for c1ncc(Nc2nccc(C3CCCCN3CC3CCCCC3)n2)cn1 (stereo not drawn) here?
A: Its cytotoxicity at 70.5 h is -2.27%.

Q: With CSc1nccc(N2CCCC(c3nccn3C(C)C)C2)n1 (stereo not drawn) as the molecule, how does the cytotoxicity at 70.5 h read?
A: Its cytotoxicity at 70.5 h is 17.1%.

Q: With Cc1nccn1-c1ccc(NS(=O)(=O)c2cnn(C(C)C)c2)cn1 as the molecule, how does the cytotoxicity at 70.5 h read?
A: The cytotoxicity at 70.5 h was -2.54%.

Q: With O=C(NC1CC(=O)N(C2Cc3ccccc3C2)C1)c1cnccn1 (stereo not drawn) as the molecule, how does the cytotoxicity at 70.5 h read?
A: Its cytotoxicity at 70.5 h is -4.83%.

Q: Which cytotoxicity at 70.5 h does the source give for CCN(CC)c1ncc2c(O)nc(C3CCNCC3)cc2n1 here?
A: Its cytotoxicity at 70.5 h is -4.7%.

Q: With CN(CC(N)=O)CC(=O)N(C1=CCCCC1)C1CC1 as the molecule, how does the cytotoxicity at 70.5 h read?
A: Its cytotoxicity at 70.5 h is -10.7%.

Q: For c1ccc(N2CCCC3(CCN(Cc4ccsc4)C3)C2)nc1 (stereo not drawn), which cytotoxicity at 70.5 h is on record?
A: The cytotoxicity at 70.5 h was -7.47%.

Q: For Cc1cnn(CC2CCCCN2C(=O)c2cccc3c2OCO3)c1 (stereo not drawn), which cytotoxicity at 70.5 h is on record?
A: Its cytotoxicity at 70.5 h is -8.6%.

Q: Which cytotoxicity at 70.5 h does the source give for Cc1nc(CN2CCCN(c3nccs3)CC2)no1 here?
A: Its cytotoxicity at 70.5 h is 10.6%.

Q: Which cytotoxicity at 70.5 h does the source give for Cc1cccc2c1nc1n2[C@@H](CNC(=O)C2CCOCC2)COC1 here?
A: The cytotoxicity at 70.5 h was -4.19%.

Q: Which cytotoxicity at 70.5 h does the source give for Cc1ccc(C(=O)N2CC[C@]3(C[C@@H](OCc4ccccn4)CO3)C2)nc1 here?
A: Its cytotoxicity at 70.5 h is 12.9%.

Q: Which cytotoxicity at 70.5 h does the source give for c1cncc(CC2CN(c3cccnc3)CCO2)c1 (stereo not drawn) here?
A: The cytotoxicity at 70.5 h was -6.99%.

Q: For Cc1cc(NCCC(=O)NC2CCCCC2)nc(-c2ccncc2)n1, which cytotoxicity at 70.5 h is on record?
A: Its cytotoxicity at 70.5 h is 24.9%.

Q: With Cc1cc(CN2CC[C@H]3C(=O)N(c4cccnc4)CCO[C@H]3C2)no1 as the molecule, how does the cytotoxicity at 70.5 h read?
A: Its cytotoxicity at 70.5 h is -4.94%.

Q: With O=C(N[C@@H]1CCN(c2ncc(Cl)cc2Cl)C[C@H]1O)c1cnccn1 as the molecule, how does the cytotoxicity at 70.5 h read?
A: The cytotoxicity at 70.5 h was -2.1%.

Q: Which cytotoxicity at 70.5 h does the source give for CCOCCC(=O)N1CC(=O)Nc2cc(Br)ccc21 here?
A: Its cytotoxicity at 70.5 h is 22%.

Q: With CC(C)(NS(C)(=O)=O)c1nc(-c2ccc(F)c(F)c2)no1 as the molecule, how does the cytotoxicity at 70.5 h read?
A: The cytotoxicity at 70.5 h was -5.95%.

Q: For O=C(O)[C@@H]1CN(C(=O)c2ccc3nccnc3c2)C[C@H]1c1ccncc1, which cytotoxicity at 70.5 h is on record?
A: Its cytotoxicity at 70.5 h is -7.07%.

Q: With O=C(NC1CCCN(Cc2c(F)cccc2F)C1)c1cc[nH]n1 (stereo not drawn) as the molecule, how does the cytotoxicity at 70.5 h read?
A: Its cytotoxicity at 70.5 h is -18%.

Q: Which cytotoxicity at 70.5 h does the source give for CC(C)(C)n1cc(C#N)cc1NC(=O)CCNC(=O)c1ccco1 here?
A: Its cytotoxicity at 70.5 h is 11.3%.

Q: With Cc1ccc(N2CCCC(NC(=O)C(C)(C)C#N)C2=O)cc1 (stereo not drawn) as the molecule, how does the cytotoxicity at 70.5 h read?
A: Its cytotoxicity at 70.5 h is 1.69%.

Q: With Cc1ccc(NC(=O)Nc2c(O)oc3ccccc3c2=O)cc1 as the molecule, how does the cytotoxicity at 70.5 h read?
A: Its cytotoxicity at 70.5 h is 4.11%.

Q: For O=c1cc(CNCc2ccc3c(c2)OCO3)nc2ccccn12, which cytotoxicity at 70.5 h is on record?
A: The cytotoxicity at 70.5 h was -6.34%.

Q: With CC(=O)NCC(=O)N1Cc2cc(-c3cc[nH]n3)ccc2C1c1cnco1 (stereo not drawn) as the molecule, how does the cytotoxicity at 70.5 h read?
A: Its cytotoxicity at 70.5 h is -2.28%.

Q: Which cytotoxicity at 70.5 h does the source give for Cn1cc(C(=O)Nc2cc(F)ccc2OCC2CCCO2)ccc1=O (stereo not drawn) here?
A: Its cytotoxicity at 70.5 h is -7.6%.

Q: Which cytotoxicity at 70.5 h does the source give for Cn1ccnc1CN1CCOC(Cc2ccccc2)C1 (stereo not drawn) here?
A: Its cytotoxicity at 70.5 h is -3.39%.

Q: Which cytotoxicity at 70.5 h does the source give for CCn1ncc(C(=O)N2CCCN(CCCc3ccccc3)CC2)c1C here?
A: The cytotoxicity at 70.5 h was -2.97%.

Q: For O=C(c1cnc(O)cn1)N(Cc1ccsc1)CC1CCCO1 (stereo not drawn), which cytotoxicity at 70.5 h is on record?
A: Its cytotoxicity at 70.5 h is 25.2%.

Q: With Cc1nc(COC[C@H]2CCC[C@]23CN(CC2CC2)CCO3)cs1 as the molecule, how does the cytotoxicity at 70.5 h read?
A: The cytotoxicity at 70.5 h was 18.4%.

Q: For CC(NC(=O)N1CCN(c2ccc(Cl)cc2)CC1)C(=O)N1CCSCC1 (stereo not drawn), which cytotoxicity at 70.5 h is on record?
A: The cytotoxicity at 70.5 h was -12.6%.

Q: With CCN1CCN(CCC(=O)NC2CC(c3cccc(Cl)c3)C2)CC1 (stereo not drawn) as the molecule, how does the cytotoxicity at 70.5 h read?
A: The cytotoxicity at 70.5 h was 3.15%.

Q: Which cytotoxicity at 70.5 h does the source give for Cc1cccc(N2CCN(CCC(=O)NCc3ccc(C)s3)CC2)c1 here?
A: Its cytotoxicity at 70.5 h is 20.7%.

Q: For CN(CCCNC(=O)c1ccccc1OCC(N)=O)CC(F)(F)F, which cytotoxicity at 70.5 h is on record?
A: The cytotoxicity at 70.5 h was 1.62%.

Q: For CC(C)n1cc(CN2CCCN(C(=O)CC3CCCO3)CC2)cn1 (stereo not drawn), which cytotoxicity at 70.5 h is on record?
A: The cytotoxicity at 70.5 h was -4.54%.

Q: With Fc1ccc(CCN2CCC(c3nnc(-c4cccnc4)o3)CC2)cc1 as the molecule, how does the cytotoxicity at 70.5 h read?
A: Its cytotoxicity at 70.5 h is 16.7%.

Q: With COc1ccc(CNCC2CNc3ccnn3C2)cn1 (stereo not drawn) as the molecule, how does the cytotoxicity at 70.5 h read?
A: The cytotoxicity at 70.5 h was -3.27%.

Q: For COCCCC1(CO)CCCN(Cc2ccc(F)c(OC)c2)C1 (stereo not drawn), which cytotoxicity at 70.5 h is on record?
A: The cytotoxicity at 70.5 h was 9.96%.

Q: With Cc1nc(O)c2nnn(C[C@H]3CCCN3C(=O)CCC3CCCC3)c2n1 as the molecule, how does the cytotoxicity at 70.5 h read?
A: The cytotoxicity at 70.5 h was 5.57%.

Q: For CNc1cncc(C2CCCN2Cc2c[nH]cn2)n1 (stereo not drawn), which cytotoxicity at 70.5 h is on record?
A: Its cytotoxicity at 70.5 h is -18.1%.

Q: Which cytotoxicity at 70.5 h does the source give for CN(C)Cc1cc(-c2nccn2CCn2cccn2)ccc1O here?
A: Its cytotoxicity at 70.5 h is -11.1%.

Q: For N#Cc1ccccc1OCCN1CCC(C(=O)N2CCOCC2)CC1, which cytotoxicity at 70.5 h is on record?
A: The cytotoxicity at 70.5 h was -9.69%.

Q: Which cytotoxicity at 70.5 h does the source give for Cc1cccc(CNC(=O)CCc2c(C)nc3cc(O)nn3c2C)n1 here?
A: Its cytotoxicity at 70.5 h is -14%.

Q: With O=C(CN1CCc2cncnc2C1)NC(C1CC1)C1CC1 as the molecule, how does the cytotoxicity at 70.5 h read?
A: The cytotoxicity at 70.5 h was -12.3%.

Q: With CCN(CC)C(CNCc1cc(F)cc(F)c1)c1ccco1 (stereo not drawn) as the molecule, how does the cytotoxicity at 70.5 h read?
A: Its cytotoxicity at 70.5 h is 20.8%.

Q: For CC(C)c1nsc(N2CCn3c(nnc3-c3ccccc3)C2)n1, which cytotoxicity at 70.5 h is on record?
A: Its cytotoxicity at 70.5 h is -7.62%.

Q: Which cytotoxicity at 70.5 h does the source give for CC(C)n1nc(Cn2cccc2)c2c1CN(Cc1ccoc1)C2 here?
A: Its cytotoxicity at 70.5 h is -4.83%.

Q: With CCN(C)S(=O)(=O)NCC(O)c1cc2ccccc2s1 (stereo not drawn) as the molecule, how does the cytotoxicity at 70.5 h read?
A: Its cytotoxicity at 70.5 h is -0.185%.

Q: With CCc1cnc(CNc2ccc(C(=O)N3CCCC(C)C3)cc2C)o1 (stereo not drawn) as the molecule, how does the cytotoxicity at 70.5 h read?
A: Its cytotoxicity at 70.5 h is -10.4%.

Q: With O=C(CCC1CCCN(S(=O)(=O)C2CC2)C1)Nc1ccc(Cl)cc1 (stereo not drawn) as the molecule, how does the cytotoxicity at 70.5 h read?
A: Its cytotoxicity at 70.5 h is 34.5%.

Q: For O=C(CC1CC1)N[C@@H]1CN(Cc2ccco2)C[C@@H]2CCCO[C@@H]21, which cytotoxicity at 70.5 h is on record?
A: Its cytotoxicity at 70.5 h is -2.26%.

Q: With Cc1cc(O)cc(=O)n1CCCC(=O)Nc1n[nH]c2cccc(F)c12 as the molecule, how does the cytotoxicity at 70.5 h read?
A: Its cytotoxicity at 70.5 h is -16.5%.

Q: Which cytotoxicity at 70.5 h does the source give for CNC(=O)c1cccc(C2CNCCN2C(=O)c2ccn(C)n2)c1 (stereo not drawn) here?
A: The cytotoxicity at 70.5 h was 0.974%.

Q: Which cytotoxicity at 70.5 h does the source give for CCc1nccn1C1CCCN(C(=O)c2cnn3cccnc23)C1 (stereo not drawn) here?
A: The cytotoxicity at 70.5 h was 27.7%.

Q: For Cc1nc(CSCCC(=O)NCCNC(=O)OC(C)(C)C)cs1, which cytotoxicity at 70.5 h is on record?
A: The cytotoxicity at 70.5 h was 3.27%.

Q: With Cc1csc(CNc2cnn(C(C)C)c2)n1 as the molecule, how does the cytotoxicity at 70.5 h read?
A: The cytotoxicity at 70.5 h was 3.67%.

Reference: ChEMBL document CHEMBL3507680, “University of Dundee, Gates Library screen for HepG2 cell viability”
